Assay results as given in paper PMC11342626, “Inhibition of IRP2-dependent reprogramming of iron metabolism suppresses tumor growth in colorectal cancer” (Cell Communication and Signaling : CCS, 2024).
pKd: −log10 of the molar value.

Biological target: T1, IRP2 (Homo sapiens, UniProt P48200)
T1 construct: gene IREB2; isolated IRP2 immobilised on CM5 chip
T1 sequence (P48200 1-963): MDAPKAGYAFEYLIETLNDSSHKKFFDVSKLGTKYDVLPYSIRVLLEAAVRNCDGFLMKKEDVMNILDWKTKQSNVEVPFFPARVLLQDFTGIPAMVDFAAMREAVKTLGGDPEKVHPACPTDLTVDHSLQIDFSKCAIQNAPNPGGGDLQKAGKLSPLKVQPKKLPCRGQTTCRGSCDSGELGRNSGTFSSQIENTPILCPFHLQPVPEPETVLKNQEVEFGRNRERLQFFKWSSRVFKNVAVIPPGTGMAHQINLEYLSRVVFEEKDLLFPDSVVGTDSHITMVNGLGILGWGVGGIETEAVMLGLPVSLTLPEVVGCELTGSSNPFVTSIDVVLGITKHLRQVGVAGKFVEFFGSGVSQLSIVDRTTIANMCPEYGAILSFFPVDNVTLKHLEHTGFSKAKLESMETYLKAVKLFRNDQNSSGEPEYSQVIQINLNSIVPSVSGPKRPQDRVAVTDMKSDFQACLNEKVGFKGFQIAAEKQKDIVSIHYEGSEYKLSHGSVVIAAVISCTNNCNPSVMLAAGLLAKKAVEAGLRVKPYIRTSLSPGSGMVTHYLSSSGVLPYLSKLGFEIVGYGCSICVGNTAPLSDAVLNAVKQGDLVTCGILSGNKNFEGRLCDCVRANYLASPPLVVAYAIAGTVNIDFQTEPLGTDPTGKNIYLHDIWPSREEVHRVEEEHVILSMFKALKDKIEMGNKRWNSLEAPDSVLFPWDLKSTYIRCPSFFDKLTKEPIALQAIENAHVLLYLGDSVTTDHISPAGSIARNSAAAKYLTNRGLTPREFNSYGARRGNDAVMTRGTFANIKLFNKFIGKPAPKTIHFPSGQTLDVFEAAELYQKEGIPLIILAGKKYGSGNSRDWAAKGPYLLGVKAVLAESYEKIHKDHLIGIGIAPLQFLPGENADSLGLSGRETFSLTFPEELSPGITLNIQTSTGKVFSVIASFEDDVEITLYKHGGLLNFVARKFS
Assay: SPR (Biacore T200, CM5 chip, multi-cycle kinetics, […] fit)
Assay type: binding

Row | pKd | SMILES
1 | 4.34 | COc1ccc(S(=O)(=O)Nc2cccc(C)c2)cc1-c1cnc2[nH]ncc2c1 [KS-20073]
2 | 5.39 | COc1ccc(S(=O)(=O)Nc2cccc(F)c2)cc1-c1cnc2[nH]nc(NC(C)=O)c2c1 [KS-20226]
